According to the supplement of paper PMC10307832:

How the values were obtained:
Test in all cases: relative viability (nuclei count vs DMSO), 5 days (fraction); higher = more cells survive
[1] = compound: CCOC(=O)CCNc1cc(N2CCc3ccccc3CC2)nc(-c2ccccn2)n1 [GSK-J4] + Cc1nc(Nc2ncc(C(=O)Nc3c(C)cccc3Cl)s2)cc(N2CCN(CCO)CC2)n1 [Dasatinib] (partner 0.075 µM)
Method in brief: (§1)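 Lung cancer cell lines in 1536-well plates got either a single drug or a fixed anchor-drug dose together with five library-drug doses (not always all listed) in √10 steps, by pin tool, on the day after seeding. Nuclei were counted after 5 days, and relative viability is the treated-to-vehicle ratio of nuclei counts. Values are medians of duplicate plates.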

[2] = compound: CCOC(=O)CCNc1cc(N2CCc3ccccc3CC2)nc(-c2ccccn2)n1 [GSK-J4] + Nc1nc2[nH]cc(CCc3ccc(C(=O)N[C@@H](CCC(=O)O)C(=O)O)cc3)c2c(=O)[nH]1 [Pemetrexed] (partner 0.2 µM)
Method in brief: as §1

[3] = compound: CCOC(=O)CCNc1cc(N2CCc3ccccc3CC2)nc(-c2ccccn2)n1 [GSK-J4] + C[C@]1(O)C[C@@H](c2nc(-c3ccc4ccc(-c5ccccc5)nc4c3)c3c(N)nccn32)C1 [Linsitinib] (partner 1 µM)
Method in brief: as §1

[4] = compound: CN1CCC(CC1)OC2=CC(=C(C=C2)NC3=NC=C4C(=N3)N(C(=O)N4C)C5CCCC5)OC [AZ3146] + CS(=O)(=O)CCNCc1ccc(-c2ccc3ncnc(Nc4ccc(OCc5cccc(F)c5)c(Cl)c4)c3c2)o1 [Lapatinib] (partner 2 µM)
Method in brief: as §1

Cell Line	relative viability ([1]; first compound 0.5 µM)	relative viability ([1]; first compound 1.581 µM)	relative viability ([1]; first compound 5 µM)	relative viability ([1]; first compound 15.81 µM)	relative viability ([1]; first compound 50 µM)	relative viability ([2]; first compound 0.5 µM)	relative viability ([2]; first compound 1.581 µM)	relative viability ([2]; first compound 5 µM)	relative viability ([2]; first compound 15.81 µM)	relative viability ([2]; first compound 50 µM)	relative viability ([3]; first compound 0.5 µM)	relative viability ([3]; first compound 1.581 µM)	relative viability ([3]; first compound 5 µM)	relative viability ([3]; first compound 15.81 µM)	relative viability ([3]; first compound 50 µM)	relative viability ([4]; first compound 0.253 µM)	relative viability ([4]; first compound 0.8 µM)	relative viability ([4]; first compound 2.53 µM)	relative viability ([4]; first compound 8 µM)	relative viability ([4]; first compound 0.08 µM)
NCI-H2342	0.314	0.299	0.33	0.365	0.313	0.737	0.79	0.762	0.84	0.824	–	–	–	–	–	–	–	–	–	–
NCI-H1944	0.225	0.223	0.179	0.196	0.184	0.553	0.565	–	0.48	0.586	1.2	0.977	1.22	1.22	1.2	0.801	0.819	0.837	0.987	–
SK-LU-1	0.176	0.161	0.127	0.199	0.179	0.931	0.877	0.85	0.876	0.717	1.08	1.18	0.716	0.911	0.777	0.972	0.825	1.13	0.697	0.803
HCC-44	–	–	–	–	–	0.601	0.503	0.638	0.668	0.625	0.704	0.625	0.709	0.735	0.646	0.953	0.999	1.01	0.971	0.907
201T	0.576	0.6	0.639	0.391	0.348	0.353	0.301	0.312	0.33	0.364	1.02	1.08	1.1	1.04	1.06	1.06	1	1.06	1.06	1.03
IA-LM	–	–	–	–	–	–	–	–	–	–	0.556	0.288	0.634	0.463	0.201	0.955	0.718	0.72	0.49	–
NCI-H661	0.862	0.755	0.636	0.641	0.649	0.908	0.827	0.883	0.883	0.788	0.549	0.565	0.608	0.425	0.36	0.514	0.559	0.537	0.472	0.661
NCI-H2087	0.747	–	0.725	0.694	0.645	0.622	0.667	0.635	0.621	0.742	0.791	0.94	–	0.864	0.641	1.08	1.08	0.906	1.14	0.899
NCI-H647	0.2	0.164	0.0733	0.285	0.131	0.175	0.177	0.168	0.184	0.205	0.964	0.993	1.03	1.2	0.79	1.12	1.12	1.25	0.792	1.05
A-427	0.609	–	0.363	0.655	0.274	0.932	0.654	–	0.883	0.463	1.07	–	1.14	1.11	0.94	1.03	0.957	0.969	1.01	0.988
NCI-H520	0.217	0.191	0.154	0.125	0.184	0.632	0.5	0.655	0.57	0.547	0.829	0.939	1.15	0.891	0.81	0.84	0.838	0.965	0.576	0.797
NCI-H1755	0.367	0.406	0.246	0.364	0.361	0.4	0.349	0.398	0.388	0.365	0.958	0.561	0.962	0.858	0.959	1.05	0.973	1.05	1.05	1.03
NCI-H1975	0.335	0.361	0.253	0.267	0.284	0.249	0.285	0.212	0.331	0.276	0.871	0.934	–	0.982	1.17	0.95	0.928	0.933	0.783	0.922
ChaGo-K-1	0.618	0.501	0.461	0.592	0.518	0.259	–	0.247	0.259	0.266	–	–	–	–	–	–	–	–	–	–
BEN	0.398	0.362	–	0.304	0.284	0.933	0.759	0.501	0.731	0.573	0.91	0.706	–	0.925	0.823	0.683	0.805	0.659	0.681	–
SW 1573	0.326	0.42	0.348	0.362	0.246	0.81	0.804	0.768	0.756	0.375	0.81	0.755	0.802	0.703	0.595	1.17	1.07	1.04	1.05	1.19
EPLC-272H	0.418	0.327	0.262	0.357	0.282	0.36	0.294	0.319	0.295	0.3	1.16	–	1.31	1.02	1.11	0.911	0.957	0.951	0.877	0.897
LK-2	0.354	–	0.267	0.229	0.241	0.281	0.239	0.329	0.226	0.172	0.69	0.449	0.774	0.537	0.602	0.961	0.914	1.01	0.841	0.754
